Drawing on a melting point compilation (Tetko et al.; mined from patent text by program, amines drawn as free bases though some values may be those of a salt), this text covers melting point for 89 compounds.

Molecules are shown by their SMILES.

A word on the melting point: it is the temperature of the solid-liquid transition. In the case of `Nc1cccc(-c2ccc(CCN3CCN(C(=O)COc4ccccc4)CC3)cc2)n1`, the melting point fell in the range of 127 to 130 °C.

In the case of `OCCCC#CC#Cc1ccccc1`, the melting point is 50.9 to 51.6 °C.

In the case of `CCOC(=O)N1CCC(=C2c3ccc(Cl)cc3SCc3cccnc32)CC1`, the melting point lay in the range of 154 to 157 °C.

As for `O=c1[nH]nc(Cl)cc1Br`, the melting point fell in the range of 205 to 206 °C.

In turn, `O=C(OC(Cc1ccccc1)C(=O)O)c1ccccc1` (centres undefined) yielded a melting point of 113 °C.

As for `O=C(N[C@H](Cc1ccc(C(F)(F)F)cc1)[C@@H](O)c1ccc(F)cc1)c1ccnc2ccccc12` (racemic), the melting point lay in the range of 227 to 228 °C.

`CCCCCCCCCCCCCCCCCCOc1cc(OCCOc2ccc3ccccc3c2)cc(C(=O)O)c1` came in with a melting point of 93 to 94 °C.

For the compound `CCC1(CC)c2cc(N)ccc2-c2ccc(-c3nc4ccccc4s3)cc21`, the melting point was in the range of 206 to 207 °C.

Consider `COC(=O)c1ccc(NC(=O)c2ccccc2-c2ccccc2)cc1Cl`, for which the melting point fell in the range of 132 to 134 °C.

Consider `COc1ccc2nc3cc(OC)c(=O)c(Br)c-3sc2c1`, for which the melting point fell in the range of 260 to 261 °C.

In turn, `CCOC(=O)N1CCN(CCNc2ncnc3c2sc2nc(-c4ccoc4)c4c(c23)CC(C)(C)CC4)CC1` registered a melting point of 85.1 to 86.4 °C.

`COC(OC)C(C)NC1=Nc2ccc(Cl)cc2C(c2ccccc2Cl)=NC1` (centres undefined) showed a melting point of 153 to 155 °C.

`Cc1sc(N)c(C(=O)c2ccc(Cl)cc2)c1CN(C)Cc1ccccc1` had a melting point of 114 to 116 °C.

Compound `CC1(C)C=C(n2cncn2)c2cccc(OCc3c(Cl)ccc(S(=O)(=O)N4CCC[C@H]4C(=O)O)c3Cl)c2N1` yielded a melting point of 146 °C.

As to `CCCCCCCCc1ccc(C(=O)Cc2cccc(C(=O)O)c2)cc1`, the melting point lay within 103 to 110 °C.

`CC(C)Cc1ccc2nc(Cl)cn2n1` yielded a melting point of 71 to 72.5 °C.

The compound `CCCC=NNc1cc2c(nn1)CCN(C(=O)OCC)C2` displayed a melting point of 142 to 146 °C.

In the case of `OCCCCc1cc(-c2ccc(C(F)(F)F)cc2)no1`, the melting point was 68 to 69 °C.

Regarding `NNC(=S)NCC1CC(c2ccc(Cl)cc2)=NO1` (centres undefined), the melting point lay in the range of 115 to 117 °C.

`CCCn1nc2c(N)nc3ccccc3c2c1CCNC(=O)NC(C)C` showed a melting point of 197 to 198 °C.

With `CCOc1cc(C(=CC#N)c2ccc(OC)c(F)c2)ccc1OC`, the melting point lay in the range of 122 to 124 °C.

As for `CCOC(=O)CCCn1ccnc1CSc1ccc(N)cc1`, the melting point was in the range of 74 to 75 °C.

`COc1cc(NC(=O)c2cc(C(C)C)c(C(C)C)s2)ccc1C(=O)O` yielded a melting point of 213 to 214 °C.

`O=C1CCC(N2C(=O)c3cccc(OCc4ccc(CN5CCN6N=C(C(F)(F)F)NC6C5)cc4)c3C2=O)C(=O)N1` (centres undefined) showed a melting point of 128 to 130 °C.

`Cc1oc2c(C)cc(C3CC(=O)OC(=O)C3)cc2c1C` registered a melting point of 170 °C.

Regarding `Cc1cc2c(c3c1NC(=O)C(C)(C)C3)OC(C)(CN=[N+]=[N-])C2` (centres undefined), the melting point lay in the range of 169 to 170 °C.

Compound `O=C(O)C1(Cc2ccccc2)CCN(Cc2ccccc2)CC1` had a melting point of 262 °C.

Take `CNc1ccc(Cl)nc1`: the melting point came out at 70 °C.

In turn, `CSc1nc(SC)c(NC(=O)CCCCCSc2nc3ccccc3o2)c(SC)n1` had a melting point of 149 to 153 °C.

Compound `CC(CC(F)(F)F)C(=O)Nc1cnn(-c2cccnc2)c1` (centres undefined) yielded a melting point of 140 to 145 °C.

Regarding `CCOCc1nc2c(c(C)c(C)n3nnnc23)n1CCNC(=O)C(C)C`, the melting point is 179 to 181 °C.

In turn, `COc1ccc(CC(=O)NC(NC(=NC#N)Nc2cccnc2OC)C(C)(Cl)Cl)cc1OC` (centres undefined) had a melting point of 188 to 190 °C.

For the compound `CCCCOCCOc1ccc(-c2ccc(N(C)Cc3cnn(C)c3)c(C=CC(=O)O)c2)cc1`, the melting point lay in the range of 125 to 127 °C.

In the case of `CO[C@@H](Cc1ccc(OCCc2nc(-c3cc(C)cc(C)c3)oc2C)c2ccsc12)C(=O)O`, the melting point lay within 184 to 185 °C.

`C[C@H](NC(=O)CCCCc1ccccc1)C(=O)N[C@H](CCC(=O)O)C(=O)O` yielded a melting point of 135 to 140 °C.

The compound `CC1(C)C2CCC(C2)C1(C)F` (centres undefined) yielded a melting point of 93 to 94 °C.

The compound `CC(=O)c1c(Cl)cccc1N1CCN(CCCCOc2ccc3c(n2)NC(=O)CC3)CC1` yielded a melting point of 115 °C.

Compound `O=c1c2c(Cl)cc(Cl)cc2n(Cc2ccccc2)c(=O)n1CCc1ccccc1` had a melting point of 169 to 171 °C.

On to `CCC(CC)(NCCCn1cnc(CO)c1)c1ccccc1`, for which the melting point was in the range of 82 to 84 °C.

On to `CC(=O)N1CCC(CCc2ccc(N(C)C)cc2)CC1`, for which the melting point lay within 49 to 51 °C.

Take `CCOC(=O)c1ncn2c1CNC(=O)c1cc(F)ccc1-2`: the melting point was 298 °C.

For `COC1(OC)C2(Cl)C(Cl)=C(Cl)C1(Cl)C1OC(=O)OC12` (centres undefined), the melting point lay within 160 to 162 °C.

As to `CCSCC12CCC(=O)C=C1CCC1C3CC(CC)C(=O)C3(C)CCC12` (centres undefined), the melting point amounted to 73 °C.

For `NCCNCCCNCCN1C(=O)c2cccc3cc4ccccc4c(c23)C1=O`, the melting point is 150 °C.

Compound `CCOC(=O)Cn1c(=O)[nH]c(=O)c2cc(Cl)c(Cl)cc21` displayed a melting point of over 280 °C.

Consider `CC(C)CC(NC(=O)C1CCCCC1NC(=O)OCc1ccccc1)C(N)=O` (centres undefined), for which the melting point fell in the range of 188 to 190 °C.

`O=C=Nc1ccc(S(=O)(=O)Cl)cc1` had a melting point of 50 to 52 °C.

Compound `CCOC(=O)NC1N=C(c2ccccc2)c2ccccc2-n2c(C)nnc21` (centres undefined) returned a melting point of 198 to 202 °C.

`CC(C)NC1=NS(=O)(=O)c2cccc(Cl)c2N1` registered a melting point of 124 to 125 °C.

`Cc1cc(C)cc(S(=O)(=O)c2cccc(N)c2C#N)c1`: the melting point lay in the range of 208 to 209 °C.

`CCOC(Cc1ccc(OCCN2c3ccccc3Oc3ccccc32)cc1)C(=O)O` (centres undefined) came in with a melting point of 86 to 102 °C.

Consider `Cc1nc2cccc(S(=O)(=O)n3c(COC(C)(C)C(=O)O)cc4cc(Cl)ccc43)c2s1`, for which the melting point was in the range of 128 to 130 °C.

On to `CCOC(=O)c1cnc2n(c1=O)C(C)CC=C2NC` (centres undefined), for which the melting point lay in the range of 141 to 142 °C.

The compound `COc1ccc(Br)cc1OC(=O)c1ccccc1` showed a melting point of 73 to 75 °C.

On to `CC1COC(=O)N1c1cc(-c2ncnc(Nc3cccc(Cl)c3)n2)ccn1` (centres undefined), for which the melting point fell in the range of 191 to 193 °C.

Consider `N=C(N)Nc1nc(CSCCNc2ncc(Cc3ccc(Cl)cc3)c(=O)[nH]2)cs1`, for which the melting point was 205 to 207 °C.

The compound `O=S(=O)(Nc1ccccc1COc1cccc2cccnc12)c1ccc(F)cc1` gave a melting point of 121 to 122 °C.

Consider `C#CCOc1cc(-n2nc(C)c([N+](=O)[O-])c2C)c(F)cc1Cl`, for which the melting point lay within 125 to 126 °C.

`O=S(=O)(c1ccc(-c2ccc(C(O)CCl)cc2)cc1)C(F)F` (centres undefined) displayed a melting point of 104 to 107 °C.

In the case of `CCCCCCCCCCCCCCCCCC(=O)OC1CC(C)(C)N(OCC(C)(C)O)C(C)(C)C1`, the melting point lay within 51 to 56 °C.

On to `COc1cc(C#N)ccc1-c1cc(-c2ccc(C#N)cc2)on1`, for which the melting point was 243 to 244 °C.

Compound `O=C1CCCC2=C1C(c1cccc(Br)c1)C1=C(CCCC1)N2` (centres undefined) displayed a melting point of 258 to 260 °C.

`O=C(O)c1cc(F)c(-n2cccc2)cc1F` displayed a melting point of 196 to 198 °C.

In turn, `Oc1c(C(Nc2ccc(F)cn2)c2ccccn2)ccc2cccnc12` (centres undefined) yielded a melting point of 165 to 168 °C.

Regarding `CCC(=C(c1ccccc1)c1ccc(C=CC(=O)OC)cc1)c1ccccc1`, the melting point is 133 to 135 °C.

As to `CC(C)N(O)C(=O)Nc1ccc(S(C)(=O)=O)cc1`, the melting point is 163 to 164 °C.

For `COc1cc(CO)ccc1OCc1nc(N2CCCCC2)sc1C`, the melting point fell in the range of 92 to 93 °C.

For the compound `Cc1c(-c2ccc(C#N)cc2)c(C#N)c(C2CC2)n1Cc1cnc(Cl)c(COC(=O)CCC(=O)O)c1`, the melting point was in the range of 188 to 189 °C.

`CN(Cc1ccc(NC(=O)C2=Cc3cc(-c4ccc(C(F)(F)F)cc4)ccc3OCC2)cc1)C1CCOCC1` gave a melting point of 205 to 209 °C.

On to `CCc1nc(/C=C\c2cn(-c3ccccc3)nc2OCc2ccc(OCc3nc(-c4ccco4)oc3C)c(OC)c2)cs1`, for which the melting point is 108 to 109 °C.

Consider `COCC(=O)N[C@H]1CC[C@H](CCN2CCN(c3nccc4ccoc34)CC2)CC1`, for which the melting point was determined as 132 °C.

`CN(C)S(=O)(=O)c1cc(-c2csc(=Nc3ccc(C(F)(F)F)cc3)n2C)ccc1Cl` gave a melting point of 147 to 151 °C.

Take `CN(C)C(=O)C1CN(C)c2nc3cc(F)c(F)cc3cc2C1=O` (centres undefined): the melting point worked out at 206 °C.

Turning to `N#CC1CN1C(=O)NC(=O)C1CCCCC1` (centres undefined), the melting point is 142 to 144 °C.

The compound `O=C(O)C1OCc2ccccc2O1` (centres undefined) gave a melting point of 88 °C.

As to `CCCCCc1oc(-c2ccc(Cl)cc2)nc1CC(=O)O`, the melting point is 136 to 137 °C.

Compound `O=C1c2ccccc2C(=O)N1C(Sc1ccccc1)c1ccccc1` (centres undefined) yielded a melting point of 97 to 99 °C.

Take `Cc1cc(CCCCCOc2ccc(-c3cnco3)cc2)on1`: the melting point was in the range of 91 to 93 °C.

For the compound `NC(=O)Cc1ccc2c(c1)C(=O)Cc1cccnc1S2`, the melting point lay in the range of 215 to 216 °C.

For `Cc1noc(C)c1CC(C)(NC(=O)OC1C2CC3CC(C2)CC1C3)C(=O)NCCc1ccccc1` (centres undefined), the melting point fell in the range of 70 to 73 °C.

Compound `CCCCC1N=CC(CSc2ccccc2C(=O)O)(Cc2ccc(C(=O)O)c3ccccc23)N1` (centres undefined) returned a melting point of 272 to 274 °C.

In turn, `CCn1cnc(/C=C/c2cn(-c3ccccc3)nc2OCc2ccc(OCc3nc(-c4ccc(CC(=O)O)cc4)oc3C)c(OC)c2)c1` yielded a melting point of 194 to 196 °C.

Compound `COc1ccc(C(=O)COc2ccc(NC3=NCCN3)cc2)cc1` had a melting point of 65.5 to 69 °C.

`O=C(O)CCC(=O)N1C2CCC(C2)C1C(=O)O` (centres undefined): the melting point is 132 to 135 °C.

On to `O=C1CC(c2ccccc2)Cc2occ(C(F)(F)F)c21` (centres undefined), for which the melting point lay in the range of 107 to 108 °C.

`CC(C)(C)OC(=O)[C@H]1C[C@H](C(=O)Nc2ccccc2)[C@@H](c2ccccc2F)N1C(=O)CNC(=O)Nc1cccc(C(=O)O)c1` (racemic) had a melting point of 170 °C.

Consider `O=Cc1ccc2c(c1)Cc1cccnc1O2`, for which the melting point lay within 171 to 173 °C.

On to `CCCCCCn1c2c(c(=O)n3nc(-c4ccccc4)cc13)CN(C1CCCCC1)C2=O`, for which the melting point was in the range of 162 to 164 °C.

`CCc1nsc(NC(=O)C(C)c2ccc3oc(-c4c(F)cccc4Cl)nc3c2)c1Cl` (centres undefined): the melting point was 178 to 179 °C.
